From BindingDB's records for doi:10.1016/j.bmcl.2003.09.074 (Eli Lilly, 2003) come the findings set out here.

Assay [1] in a line: Binding affinity towards Protease using PNA assay in rats.
A short description of assay [2]: Cytotoxic activity against Protease in […] Huh-7 cells.
Experiment in assay [3]: as above
The source holds these as a separate data set.

A short description of assay [4]: Cytotoxic activity against Protease in […] Huh-7 cells at 100 uM concentration.

*1 amine or outer side, *2 acyl side, *3 side chain or, on linkers, in order; H or OH if unused. Where a SMILES comes first, the peptide text is derived from it. [ ]: non-standard residue; d: D form. The star is where a group is joined. Pro(3S,4R-(CH2)3) = O=C(O)[C@H]1NC[C@@H]2CCC[C@@H]21; Pyrazinecarbonyl = O=C(c1cnccn1)*; X1 = CCCC(N[*:1])C(=O)C(=O)[*:2]

In the case of `CCCC(NC(=O)[C@@H]1[C@H]2CC=C[C@H]2CN1C(=O)[C@@H](NC(=O)[C@@H](NC(=O)c1cnccn1)C(C)C)C(C)C)C(=O)C(=O)N[C@@H](C)CC` (stereo partly drawn) [(1S,5S,6R)-2-((S)-3-Methyl-2-{(S)-3-methyl-2-[(pyrazine-2-carbonyl)-amino]-butyrylamino}-butyryl)-1,2,3,3a,6,6a-hexahydro-cyclopenta[c]pyrrole-1-carboxylic acid [1-((S)-sec-butylaminooxalyl)-butyl]-amide], the affinity in assay [1] corresponds to a Ki of 625 nM. The molecule `CCCC(NC(=O)[C@@H]1[C@H]2CCC[C@H]2CN1C(=O)[C@@H](NC(=O)[C@@H](NC(=O)c1cnccn1)C(C)C)C(C)C)C(=O)C(=O)N[C@@H](Cc1ccccc1)C(=O)O` (stereo partly drawn) [2-(3-{[(1S,5S,6R)-2-((S)-3-Methyl-2-{(S)-3-methyl-2-[(pyrazine-2-carbonyl)-amino]-butyrylamino}-butyryl)-octahydro-cyclopenta[c]pyrrole-1-carbonyl]-amino}-2-oxo-hexanoylamino)-3-phenyl-propionic acid] (Pyrazinecarbonyl-VV[Pro(3S,4R-(CH2)3)][X1]F-OH) displayed a Ki in assay [1] of 68 nM. In assay [2], this molecule returned a 50% inhibitory concentration (IC50) above 100000 nM. Turning to `CCCC(NC(=O)C1[C@H]2CCC(=O)[C@H]2CN1C(=O)[C@@H](NC(=O)[C@@H](NC(=O)c1cnccn1)C(C)C)C(C)C)C(=O)C(=O)Nc1ccccc1` (stereo partly drawn) [(3aR,5S)-2-((S)-3-Methyl-2-{(S)-3-methyl-2-[(pyrazine-2-carbonyl)-amino]-butyrylamino}-butyryl)-4-oxo-octahydro-cyclopenta[c]pyrrole-1-carboxylic acid (1-phenylaminooxalyl-butyl)-amide], the Ki in assay [1] is 17 nM. Also, the 50% inhibitory concentration (IC50) in assay [2] was above 100000 nM.

Molecule `CCCC(NC(=O)[C@@H]1[C@H]2CC[C@H](F)[C@H]2CN1C(=O)[C@@H](NC(=O)[C@@H](NC(=O)c1cnccn1)C(C)C)C(C)C)C(=O)C(=O)N[C@@H](Cc1ccccc1)C(=O)O` (stereo partly drawn) [(S)-2-((S)-3-{[(1S,5S,6R)-4-Fluoro-2-((S)-3-methyl-2-{(S)-3-methyl-2-[(pyrazine-2-carbonyl)-amino]-butyrylamino}-butyryl)-octahydro-cyclopenta[c]pyrrole-1-carbonyl]-amino}-2-oxo-hexanoylamino)-3-phenyl-propionic acid] gave a half-inhibitory concentration (IC50) in assay [3] above 100000 nM. The molecule further gave an inhibition constant Ki in assay [1] of 82 nM. For `CCCC(NC(=O)[C@@H]1[C@H]2CC=C[C@H]2CN1C(=O)[C@@H](NC(=O)[C@@H](NC(=O)c1cnccn1)C(C)C)C(C)C)C(=O)C(=O)N[C@@H](C)c1ccccc1` (stereo partly drawn) [(1S,5S,6R)-2-((S)-3-Methyl-2-{(S)-3-methyl-2-[(pyrazine-2-carbonyl)-amino]-butyrylamino}-butyryl)-1,2,3,3a,6,6a-hexahydro-cyclopenta[c]pyrrole-1-carboxylic acid [1-((S)-1-phenyl-ethylaminooxalyl)-butyl]-amide], the Ki in assay [1] worked out at 880 nM. As for `CCCC(NC(=O)C1[C@H]2CCC(=O)[C@H]2CN1C(=O)[C@@H](NC(=O)[C@@H](NC(=O)c1cnccn1)C(C)C)C(C)C)C(=O)C(=O)NC1CC1` (stereo partly drawn) [(5S,6R)-2-((S)-3-Methyl-2-{(S)-3-methyl-2-[(pyrazine-2-carbonyl)-amino]-butyrylamino}-butyryl)-4-oxo-octahydro-cyclopenta[c]pyrrole-1-carboxylic acid (1-cyclopropylaminooxalyl-butyl)-amide], the Ki in assay [1] came to 510 nM. Also, the half-maximal inhibitory concentration (IC50) in assay [2] was above 100000 nM. For the molecule `CCCC(NC(=O)[C@@H]1[C@H]2CC[C@@H](OCOC)C2CN1C(=O)[C@@H](NC(=O)[C@@H](NC(=O)c1cnccn1)C(C)C)C(C)C)C(=O)C(=O)NC1CC1` (stereo partly drawn) [(1S,5S)-4-Methoxymethoxy-2-((S)-3-methyl-2-{(S)-3-methyl-2-[(pyrazine-2-carbonyl)-amino]-butyrylamino}-butyryl)-octahydro-cyclopenta[c]pyrrole-1-carboxylic acid ((R)-1-cyclopropylaminooxalyl-butyl)-amide], the affinity in assay [1] corresponds to a Ki of 415 nM. For the same molecule, the IC50 in assay [2] is above 100000 nM. `CCCC(NC(=O)[C@@H]1[C@H]2CC[C@H](F)[C@H]2CN1C(=O)[C@@H](NC(=O)[C@@H](NC(=O)c1cnccn1)C(C)C)C(C)C)C(=O)C(=O)NC1CC1` (stereo partly drawn) [(1S,5S,6R)-4-Fluoro-2-((S)-3-methyl-2-{(S)-3-methyl-2-[(pyrazine-2-carbonyl)-amino]-butyrylamino}-butyryl)-octahydro-cyclopenta[c]pyrrole-1-carboxylic acid ((S)-1-cyclopropylaminooxalyl-butyl)-amide]: the affinity in assay [1], expressed as Ki, was 300 nM. In assay [2], this molecule showed an IC50 above 100000 nM. The molecule `CCCC(NC(=O)[C@@H]1[C@H]2CC[C@@H](OCOC)C2CN1C(=O)[C@@H](NC(=O)[C@@H](NC(=O)c1cnccn1)C(C)C)C(C)C)C(=O)C(=O)N[C@@H](C)c1ccccc1` (stereo partly drawn) [(1S,5S)-4-Methoxymethoxy-2-((S)-3-methyl-2-{(S)-3-methyl-2-[(pyrazine-2-carbonyl)-amino]-butyrylamino}-butyryl)-octahydro-cyclopenta[c]pyrrole-1-carboxylic acid [(R)-1-((S)-1-phenyl-ethylaminooxalyl)-butyl]-amide] displayed a Ki in assay [1] of 332 nM. 33000 nM corresponded to half-maximal inhibition in assay [4] (IC50).

The molecule `CCCC(NC(=O)[C@@H]1[C@H]2CCC(F)(F)[C@H]2CN1C(=O)[C@@H](NC(=O)[C@@H](NC(=O)c1cnccn1)C(C)C)C(C)C)C(=O)C(=O)NC1CC1` (stereo partly drawn) [(1S,5S,6R)-4,4-Difluoro-2-((S)-3-methyl-2-{(S)-3-methyl-2-[(pyrazine-2-carbonyl)-amino]-butyrylamino}-butyryl)-octahydro-cyclopenta[c]pyrrole-1-carboxylic acid (1-cyclopropylaminooxalyl-butyl)-amide] displayed a Ki in assay [1] of 370 nM. The same molecule displayed an IC50 in assay [2] above 100000 nM.

With `CCCC(NC(=O)[C@@H]1[C@H]2CCC(F)(F)[C@H]2CN1C(=O)[C@@H](NC(=O)[C@@H](NC(=O)c1cnccn1)C(C)C)C(C)C)C(=O)C(=O)N[C@@H](Cc1ccccc1)C(=O)O` (stereo partly drawn) [(S)-2-(3-{[(1S,5S,6R)-4,4-Difluoro-2-((S)-3-methyl-2-{(S)-3-methyl-2-[(pyrazine-2-carbonyl)-amino]-butyrylamino}-butyryl)-octahydro-cyclopenta[c]pyrrole-1-carbonyl]-amino}-2-oxo-hexanoylamino)-3-phenyl-propionic acid], the IC50 in assay [3] was above 100000 nM. This molecule also returned a Ki in assay [1] of 176 nM. As to `CCCC(NC(=O)[C@@H]1[C@H]2CC[C@H](F)[C@H]2CN1C(=O)[C@@H](NC(=O)[C@@H](NC(=O)c1cnccn1)C(C)C)C(C)C)C(=O)C(=O)N[C@@H](C)c1ccccc1` (stereo partly drawn) [(1S,5S,6R)-4-Fluoro-2-((S)-3-methyl-2-{(S)-3-methyl-2-[(pyrazine-2-carbonyl)-amino]-butyrylamino}-butyryl)-octahydro-cyclopenta[c]pyrrole-1-carboxylic acid [(S)-1-((S)-1-phenyl-ethylaminooxalyl)-butyl]-amide], in assay [1], the inhibitory constant (Ki) was 315 nM. Consider `CCCC(NC(=O)[C@@H]1[C@H]2CC=C[C@H]2CN1C(=O)[C@@H](NC(=O)[C@@H](NC(=O)c1cnccn1)C(C)C)C(C)C)C(=O)C(=O)NC1CC1` (stereo partly drawn) [(1S,5S,6R)-2-((S)-3-Methyl-2-{(S)-3-methyl-2-[(pyrazine-2-carbonyl)-amino]-butyrylamino}-butyryl)-1,2,3,3a,6,6a-hexahydro-cyclopenta[c]pyrrole-1-carboxylic acid (1-cyclopropylaminooxalyl-butyl)-amide], for which, in assay [1], the inhibition constant Ki is 90 nM. Moreover, in assay [2], the IC50 was above 100000 nM.
